Measured values as given in patent US20210238138A1, “Method for improving nucleation of crystals from solution” (Université Libre de Bruxelles, priority 2018, published 2021).

How the values were obtained:
[1] = Cooling crystallisation of acetylsalicylic acid in ethanol/water in capillary tubing; type: physicochemical; conditions: 200 mg/mL 50 vol % ethanol/water, residence time 5.3 s, initial 65° C., bath 10° C.
Experimental: Tubing length should also be adapted when no antisolvent is added to the molecule/solvent solution.
The crystallization temperature is controlled by a water bath containing about 5 L of water, temperature is monitored at all times by a thermocouple. This water is cooled by a 1 m long cupper serpentine plunged into the bath with cooling liquid flowing from and to a cryothermostat, the water bath itself is agitated with a magnetic bar stirrer. The internal volume of a 7 m long tubing of […] is about 22 mL. As this volume is 220 times smaller than the volume of the present water it is assumed that the water temperature remains within a 0.5° C. or smaller margin of the set temperature value.
This reduction in size has to be performed in order to increase the reigning Reynolds number inside the restriction at set flow rates and concentrations.
For example, in a series of tests, an identical total residence time inside the tubing of 5.3 s was respected. A solution of 200 mg/mL aspirin in 50 vol % ethanol/water was used; at different flow rates. This means that the total length of the tubing inside the water bath was varied according to the set flow rate in order to retain the 5.3 s residence time.

[2] = Maturing of acetylsalicylic acid crystals (growth treatment, early filtration); type: physicochemical; conditions: 3 m tubing, Tc 15° C., σ 4.5, 30 mL/min; for Sphere Equivalent Diameter: thickness set to ⅕ of width
Experimental: Obtaining different crystal sizes as end-product then depends on the time that is given to the crystals to mature further. […] To further proof the effect of early filtration (see table 10), the liquor of tests 43 and 44 were also directly filtered after exiting the tubing (test 49 and 50, respectively); the product of test 44 was also collected for 2 minutes and filtered afterwards (test 51).

[3] = test 49: 200 mg/mL ethanol/water 50/50 vol %, restriction 1 of 250 μm ID, filtration At exit
[4] = test 50: 200 mg/mL ethanol/water 50/50 vol %, restriction 2 of 250 μm ID, filtration At exit
[5] = test 51: 200 mg/mL ethanol/water 50/50 vol %, restriction 2 of 250 μm ID, filtration After 120 s

Crystal length ([1]; tubing ID 750 μm, flow rate 20 mL/min, tubing length 4.2 m): 377 μm
Nucleation rate J ([1]; tubing ID 750 μm, flow rate 30 mL/min, tubing length 6.2 m): 170 000 mL^−1 · s−^1
Crystal length ([1]; tubing ID 1000 μm, flow rate 30 mL/min, tubing length 3.6 m): 495 μm
Crystal length ([1]; tubing ID 1000 μm, flow rate 40 mL/min, tubing length 4.7 m): 416 μm
Compound: CC(=O)Oc1ccccc1C(=O)O [Acetylsalicylic acid, acetylsalicylic acid]
Crystal length [2, 3]: 104 ± 55 μm
Crystal width [2, 3]: 28 ± 13 μm
Sphere Equivalent Diameter [2, 3]: 32 ± 7 μm
Crystal width [2, 4]: 23 ± 17 μm
Sphere Equivalent Diameter [2, 4]: 24 ± 8 μm
Crystal length [2, 5]: 155 ± 91 μm
Crystal width [2, 5]: 36 ± 17 μm
